In US20240158446A1, “CYCLIC COMPOUND HAVING SELECTIVE INHIBITORY ACTION ON KRAS OVER HRAS AND NRAS” (CHUGAI SEIYAKU KABUSHIKI KAISHA, priority 2021, published 2024):
pIC50, pKd: −log10 of the molar value. Like-named read-outs stand apart in the source and are kept apart here. Where a SMILES comes first, the peptide text is derived from it. Bridges are numbered along the chain shown (N, C = ends). [ ]: non-standard residue; d: D form. The star is where a group is joined. hPhe(3-Cl-4-CF3) = N[C@@H](CCc1ccc(C(F)(F)F)c(Cl)c1)C(=O)O; NPrPhe(4-CF3) = CCCN[C@@H](Cc1ccc(C(F)(F)F)cc1)C(=O)O; NMeGly(cPent) = CN[C@H](C(=O)O)C1CCCC1; NMeD = CN[C@@H](CC(=O)O)C(=O)O; NMeL = CN[C@@H](CC(C)C)C(=O)O; NMeNva = CCC[C@H](NC)C(=O)O; Morpholide = C1CN(*)CCO1; Ac4c = NC1(C(=O)O)CCC1; NPrGly = CCCNCC(=O)O; NEtG = CCNCC(=O)O; Sar = CNCC(=O)O

Key:
[1] = molecular target: GDP-bound NRAS wild-type protein (Homo sapiens, UniProt P01111); test: Binding to NRAS by surface plasmon resonance (SPR), Single Cycle Kinetics; conditions: SPR; for NRAS/KRAS (KD ratio): ratio of KD for GDP-bound NRAS wild-type protein to KD for KRAS; for NRAS/KRAS (ratio of KD value for NRAS to KD value for KRAS): GDP-bound NRAS wild-type protein vs GDP-bound KRAS wild-type protein
Chain of GDP-bound NRAS wild-type protein (P01111 whole entry): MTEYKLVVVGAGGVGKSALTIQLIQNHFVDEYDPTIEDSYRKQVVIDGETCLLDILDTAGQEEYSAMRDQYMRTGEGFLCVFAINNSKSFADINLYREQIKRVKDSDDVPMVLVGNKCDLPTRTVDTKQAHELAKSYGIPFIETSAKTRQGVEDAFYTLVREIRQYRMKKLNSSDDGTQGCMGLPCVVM

[2] = tested on: human lung cancer strain NCI-H441;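 note: cell proliferation inhibition after four days measured by CellTiter-Glo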
[3] = molecular target: GDP-bound KRAS wild-type protein (Homo sapiens, UniProt P01116); test: Binding to KRAS by surface plasmon resonance (SPR), Single Cycle Kinetics; conditions: SPR, Single Cycle Kinetics, GDP-bound KRAS wild-type protein; read-out: KRAS KD
Chain of GDP-bound KRAS wild-type protein (P01116 whole entry): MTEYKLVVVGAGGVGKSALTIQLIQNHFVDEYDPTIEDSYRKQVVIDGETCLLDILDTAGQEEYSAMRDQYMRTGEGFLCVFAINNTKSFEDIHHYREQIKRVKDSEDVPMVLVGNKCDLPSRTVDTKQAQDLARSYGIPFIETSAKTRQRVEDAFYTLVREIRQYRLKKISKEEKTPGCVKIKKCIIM

[4] = molecular target: GDP-bound HRAS wild-type protein (Homo sapiens, UniProt P01112); test: Binding to HRAS by surface plasmon resonance (SPR), Single Cycle Kinetics; conditions: SPR; for HRAS/KRAS (KD ratio): ratio of KD for GDP-bound HRAS wild-type protein to KD for KRAS; for HRAS/KRAS (ratio of KD value for HRAS to KD value for KRAS): GDP-bound HRAS wild-type protein vs GDP-bound KRAS wild-type protein
Chain of GDP-bound HRAS wild-type protein (P01112 whole entry): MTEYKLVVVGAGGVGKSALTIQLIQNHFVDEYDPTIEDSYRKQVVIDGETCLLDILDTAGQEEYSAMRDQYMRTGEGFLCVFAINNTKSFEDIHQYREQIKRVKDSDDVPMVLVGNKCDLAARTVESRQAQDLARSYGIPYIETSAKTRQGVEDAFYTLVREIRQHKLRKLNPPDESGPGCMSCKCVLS

[5] = read-out: NCI-H441 IC50, NCI-H441 cell proliferation, 4 days, CellTiter-Glo

SMILES	NRAS/KRAS (KD ratio) [1]	pIC50 [2]	pKd [3]	HRAS/KRAS (KD ratio) [4]	pIC50 [2, 5]	NRAS/KRAS (ratio of KD value for NRAS to KD value for KRAS) [1]	HRAS/KRAS (ratio of KD value for HRAS to KD value for KRAS) [4]
CCO[C@@H]1C[C@H]2C(=O)NC3(CCC3)C(=O)N(C)[C@@H](C3CCCC3)C(=O)N(C)[C@H](C(=O)N(C)CC)CC(=O)N(C)[C@H]3CCCC/C=C/c4ccc(cc4)C[C@@H](C(=O)N(C)CC(=O)N[C@@H](CCc4cc(F)c(C(F)(F)F)c(F)c4)C(=O)N2C1)N1CC/C=C\C[C@@H](C1=O)N(C)C(=O)CN(C)C(=O)[C@H]([C@@H](C)CC)NC3=O [PP1827, (1S,7S,11R,13S,19S,22S,26S,29S,35S,37Z,47E)-19-cyclopentyl-7-[2-[3,5-difluoro-4-(trifluoromethyl)phenyl]ethyl]-11-ethoxy-N-ethyl-N,3,18,21,25,31,34-heptamethyl-29-[(1S)-1-methylpropyl]-2,5,8,14,17,20,24,27,30,33,55-undecaoxo-spiro[3,6,9,15,18,21,25,28,31,34,41-undecazapentacyclo[24.15.11.2^43,46.1^35,41.0^9,13]pentapentaconta-37,43(54),44,46(53),47-pentaene-16,1′-cyclobutane]-22-carboxamide]	A (a compound having 10 or more and less than 20 is denoted as A)	8.62	10.54	A (a compound having 10 or more and less than 20 is denoted as A)	–	–	–
CCO[C@@H]1C[C@H]2C(=O)NC3(CC(C)(C)C3)C(=O)N(C)[C@@H](C3CCCC3)C(=O)N(C)[C@H](C(=O)N(C)CC)CC(=O)N(C)[C@H]3CCCC/C=C/c4ccc(cc4)C[C@@H](C(=O)N(C)CC(=O)N[C@@H](CCc4cc(F)c(C(F)(F)F)c(F)c4)C(=O)N2C1)N1CC/C=C\C[C@@H](C1=O)N(C)C(=O)CN(C)C(=O)[C@H]([C@@H](C)CC)NC3=O [PP1829]	A (a compound having 10 or more and less than 20 is denoted as A)	8.64	10.48	B (a compound having 3 or more and less than 10 is denoted as B)	–	–	–
CCCN1C(=O)CN(CC)C(=O)CN(C)C(=O)[C@H]([C@@H](C)CC)NC(=O)[C@H](CC(C)C)N(C)C(=O)C[C@@H](C(=O)N2CCOCC2)N(C)C(=O)[C@H](C2CCCC2)N(C)C(=O)C2(CCC2)NC(=O)[C@@H]2CCCN2C(=O)[C@H](CCc2ccc(C(F)(F)F)c(Cl)c2)NC(=O)CN(C)C(=O)[C@@H]1Cc1ccc(C(F)(F)F)cc1 [PP1948] ([NMeL]I[Sar][NEtG][NPrPhe(4-CF3)][Sar][hPhe(3-Cl-4-CF3)]P[Ac4c][NMeGly(cPent)][NMeD]-Morpholide; lactam N-11)	C (A compound having a KD ratio of 0.1 or more and less than 3 is denoted as C)	–	9.39	C (A compound having a KD ratio of 0.1 or more and less than 3 is denoted as C)	7.79	–	–
CCC[C@H]1C(=O)N[C@@H]([C@@H](C)CC)C(=O)N(C)CC(=O)N(CCC)CC(=O)N(CCC)[C@@H](Cc2ccc(C(F)(F)F)cc2)C(=O)N(C)CC(=O)N[C@@H](CCc2ccc(C(F)(F)F)c(Cl)c2)C(=O)N2CCC[C@H]2C(=O)NC2(CCC2)C(=O)N(C)[C@@H](C2CCCC2)C(=O)N(C)[C@H](C(=O)N2CCOCC2)CC(=O)N1C [PP1949] ([NMeNva]I[Sar][NPrGly][NPrPhe(4-CF3)][Sar][hPhe(3-Cl-4-CF3)]P[Ac4c][NMeGly(cPent)][NMeD]-Morpholide; lactam N-11)	C (A compound having a KD ratio of 0.1 or more and less than 3 is denoted as C)	–	9.04	C (A compound having a KD ratio of 0.1 or more and less than 3 is denoted as C)	8.03	–	–
C#CC[C@H]1C(=O)N[C@@H]([C@@H](C)CC)C(=O)N(C)CC(=O)N(C)[C@H]2C/C=C\CCN(C2=O)[C@@H](Cc2ccc(C(F)(F)F)cc2)C(=O)N(C)CC(=O)N[C@@H](CCc2cc(F)c(C(F)(F)F)c(F)c2)C(=O)N2C[C@@H](C)C[C@H]2C(=O)NC2(CCC2)C(=O)N(C)[C@@H](C2CCCC2)C(=O)N(C)[C@H](C(=O)N(C)CCC)CC(=O)N1C [PP2077]	–	7.96	9.92	–	–	A (a compound having 10 or more and less than 20 is denoted as A)	A (a compound having 10 or more and less than 20 is denoted as A)
CC[C@H](C)[C@@H]1NC(=O)[C@H](C(C)C)N(C)C(=O)C[C@@H](C(=O)N(C)CC)N(C)C(=O)[C@H](C2CCCC2)N(C)C(=O)C2(CCC2)NC(=O)[C@@H]2C[C@H](C)CN2C(=O)[C@H](CCc2cc(F)c(C(F)(F)F)c(F)c2)NC(=O)CN(C)C(=O)[C@H](Cc2ccc(C(F)(F)F)cc2)N2CC/C=C\C[C@@H](C2=O)N(C)C(=O)CN(C)C1=O [PP2078]	–	7.99	9.77	–	–	AA (a compound having 20 or more is denoted as AA)	A (a compound having 10 or more and less than 20 is denoted as A)
C#CCN1CC(=O)N(C)[C@H]2C/C=C\CCN(C2=O)[C@@H](Cc2ccc(C(F)(F)F)cc2)C(=O)N(C)CC(=O)N[C@@H](CCc2ccc(C(F)(F)F)c(OC)c2)C(=O)N2C[C@H](OCC)C[C@H]2C(=O)NC2(CC(C)(C)C2)C(=O)N(C)[C@@H](C2CCCC2)C(=O)N(C)[C@H](C(=O)N(C)C)CC(=O)N(C)[C@@H](CC)C(=O)N[C@@H]([C@@H](C)CC)C1=O [PP2091]	–	8.34	9.74	–	–	A (a compound having 10 or more and less than 20 is denoted as A)	B (a compound having 3 or more and less than 10 is denoted as B)
CCC[C@@H]1C[C@H]2C(=O)NC3(CC(C)(C)C3)C(=O)N(C)[C@@H](C3CCCC3)C(=O)N(C)[C@H](C(=O)N(C)C)CC(=O)N(C)[C@@H](C)C(=O)N[C@@H]([C@@H](C)CC)C(=O)N(C)CC(=O)N(C)[C@H]3C/C=C\CCN(C3=O)[C@@H](Cc3ccc(C(F)(F)F)cc3)C(=O)N(C)CC(=O)N[C@@H](CCc3cc(F)c(C(F)(F)F)c(F)c3)C(=O)N2C1 [PP2273]	–	8.80	9.72	–	–	AA (a compound having 20 or more is denoted as AA)	A (a compound having 10 or more and less than 20 is denoted as A)
CCC[C@H]1C(=O)N[C@@H]([C@@H](C)CC)C(=O)N(C2CC2)CC(=O)N(C)[C@H]2C/C=C\CCN(C2=O)[C@@H](CC2CCCCC2)C(=O)N(C)CC(=O)N[C@@H](CCc2ccc(C(F)(F)F)c(OC)c2)C(=O)N2C[C@H](OCC)C[C@H]2C(=O)N(C)C2(CCC2)C(=O)N(C)[C@@H](C(CC)CC)C(=O)N(C)[C@H](C(=O)N(C)C)CC(=O)N1C [PP2337]	–	7.47	8.49	–	–	A (a compound having 10 or more and less than 20 is denoted as A)	A (a compound having 10 or more and less than 20 is denoted as A)
CCOC[C@H]1C(=O)N[C@@H]([C@@H](C)CC)C(=O)N2CCC[C@H]2C(=O)N(C)[C@H]2C/C=C\CCN(C2=O)[C@@H](CC2CCC(F)(F)CC2)C(=O)N(C)CC(=O)N[C@@H](CCc2ccc(C(F)(F)F)c(OC)c2)C(=O)N2C[C@H](OCC)C[C@H]2C(=O)N(C)C2(CCC2)C(=O)N(C)[C@@H](C(CC)CC)C(=O)N(C)[C@H](C(=O)N(C)C)CC(=O)N1C [PP2355]	–	6.99	8.41	–	–	AA (a compound having 20 or more is denoted as AA)	A (a compound having 10 or more and less than 20 is denoted as A)
CCC[C@H]1C(=O)N[C@@H]([C@@H](C)CC)C(=O)N2CCC[C@H]2C(=O)N(C)[C@H]2C/C=C\CCN(C2=O)[C@@H](CC2CCC(F)(F)CC2)C(=O)N(C)CC(=O)N[C@@H](CCc2ccc(C(F)(F)F)c(OC)c2)C(=O)N2C[C@H](OCC)C[C@H]2C(=O)N(C)C2(CCC2)C(=O)N(C)[C@@H](C2CCCC2)C(=O)N(C)[C@H](C(=O)N(C)C)CC(=O)N1C [PP2356]	–	7.83	9.03	–	–	A (a compound having 10 or more and less than 20 is denoted as A)	A (a compound having 10 or more and less than 20 is denoted as A)
CCCOC[C@H]1C(=O)N[C@@H]([C@@H](C)CC)C(=O)N2CCC[C@H]2C(=O)N(C)[C@H]2C/C=C\CCN(C2=O)[C@@H](CC2CCC(F)(F)CC2)C(=O)N(C)CC(=O)N[C@@H](CCc2ccc(C(F)(F)F)c(OC)c2)C(=O)N2C[C@H](OCC)C[C@H]2C(=O)N(C)C2(CCC2)C(=O)N(C)[C@@H](C2CCCC2)C(=O)N(C)[C@H](C(=O)N(C)C)CC(=O)N1C [PP2357]	–	7.22	8.92	–	–	A (a compound having 10 or more and less than 20 is denoted as A)	B (a compound having 3 or more and less than 10 is denoted as B)
CCC[C@H]1C(=O)N[C@@H]([C@@H](C)CC)C(=O)N(C)CC(=O)N(C)[C@H]2C/C=C\CCN(C2=O)[C@@H](Cc2ccc(C(F)(F)F)cc2)C(=O)N(C)CC(=O)N[C@@H](CCc2ccc(C(F)(F)F)c(OC)c2)C(=O)N2C[C@@H](C)C[C@H]2C(=O)N(C)C2(CCC2)C(=O)N(C)[C@@H](C2CCCC2)C(=O)N(C)[C@H](C(=O)N(C)C)CC(=O)N1C [PP2358]	–	8.60	10.70	–	–	A (a compound having 10 or more and less than 20 is denoted as A)	B (a compound having 3 or more and less than 10 is denoted as B)
